Test system: C6 cells
Experiment: Rate of dead cells after 5-ALA PDT in erythrocyte solution, C6 cells, Example 3
Type: cell-based, rat
Description: C6 cells or human leukemia cell line TL-Oml cells were cultured in 2.5% FBS/F-12K medium (C6 cells) or 10% FBS/RPMI1640 (TL-Oml cells) supplemented with 5-ALA to a final concentration of 0.125 to 0.5 mM in a 5% CO2 incubator at 37° C. for 4 hours. After the culture, the cells were removed with a 0.25% trypsin-EDTA solution, and the collected cells were adjusted to 2×10^7 cells/mL with an erythrocyte solution (a solution in which erythrocytes and PBS were mixed at a ratio of 45:55). The cell suspension thus prepared was injected into a Tygon tube (inner diameter: 0.79 mm), wrapped around a light irradiator, and irradiated with light having a wavelength of 630 nm so that the irradiation energy density was 0.5 to 500 J/cm^2. After the irradiation, an ammonium chloride solution was added to the cell suspension to hemolyze the erythrocytes. Cells before the PDT treatment, after the PDT treatment, and after 24-hour culture were stained with the FITC Annexin V Apoptosis Detection Kit I and the rate of dead cells was analyzed with a flow cytometer.

[1] = 5-ALA 0.125 mM, 20 J/cm^2, 24 hours after irradiation
[2] = 5-ALA 0.125 mM, 20 J/cm^2, immediately after irradiation
[3] = 5-ALA 0.125 mM, 50 J/cm^2, 24 hours after irradiation
[4] = 5-ALA 0.125 mM, 50 J/cm^2, immediately after irradiation
[5] = 5-ALA 0.125 mM, 100 J/cm^2, 24 hours after irradiation
[6] = 5-ALA 0.125 mM, 100 J/cm^2, immediately after irradiation
[7] = 5-ALA 0.125 mM, 400 J/cm^2, 24 hours after irradiation
[8] = 5-ALA 0.125 mM, 400 J/cm^2, immediately after irradiation
[9] = 5-ALA 0.125 mM, 500 J/cm^2, 24 hours after irradiation
[10] = 5-ALA 0.125 mM, 500 J/cm^2, immediately after irradiation
[11] = 5-ALA 0.25 mM, 2.5 J/cm^2, 24 hours after irradiation
[12] = 5-ALA 0.25 mM, 2.5 J/cm^2, immediately after irradiation
[13] = 5-ALA 0.25 mM, 5 J/cm^2, 24 hours after irradiation
[14] = 5-ALA 0.25 mM, 5 J/cm^2, immediately after irradiation
[15] = 5-ALA 0.25 mM, 250 J/cm^2, 24 hours after irradiation
[16] = 5-ALA 0.25 mM, 250 J/cm^2, immediately after irradiation
[17] = 5-ALA 0.25 mM, 300 J/cm^2, 24 hours after irradiation
[18] = 5-ALA 0.25 mM, 300 J/cm^2, immediately after irradiation
[19] = 5-ALA 0.25 mM, 350 J/cm^2, 24 hours after irradiation
[20] = 5-ALA 0.25 mM, 350 J/cm^2, immediately after irradiation
[21] = 5-ALA 0.5 mM, 0.5 J/cm^2, 24 hours after irradiation
[22] = 5-ALA 0.5 mM, 0.5 J/cm^2, immediately after irradiation
[23] = 5-ALA 0.5 mM, 1 J/cm^2, 24 hours after irradiation
[24] = 5-ALA 0.5 mM, 1 J/cm^2, immediately after irradiation
[25] = 5-ALA 0.5 mM, 2.5 J/cm^2, 24 hours after irradiation
[26] = 5-ALA 0.5 mM, 2.5 J/cm^2, immediately after irradiation
[27] = 5-ALA 0.5 mM, 100 J/cm^2, 24 hours after irradiation
[28] = 5-ALA 0.5 mM, 100 J/cm^2, immediately after irradiation
[29] = 5-ALA 0.5 mM, 350 J/cm^2, 24 hours after irradiation
[30] = 5-ALA 0.5 mM, 350 J/cm^2, immediately after irradiation
[31] = 5-ALA 0.5 mM, 400 J/cm^2, 24 hours after irradiation
[32] = 5-ALA 0.5 mM, 400 J/cm^2, immediately after irradiation
[33] = 5-ALA 0.5 mM, 500 J/cm^2, 24 hours after irradiation
[34] = 5-ALA 0.5 mM, 500 J/cm^2, immediately after irradiation

Structure (SMILES): NCC(=O)CCC(=O)O [5-ALA, 5-aminolevulinic acid]
- Annexin V+/PI+ (%) [1]: 2%
- Annexin V+/PI− (%) [1]: 3%
- Annexin V-/PI− (%) [1]: 95%
- Annexin V+/PI+ (%) [2]: 2%
- Annexin V+/PI− (%) [2]: 1%
- Annexin V−/PI− (%) [2]: 97%
- Annexin V+/PI+ (%) [3]: 3%
- Annexin V+/PI− (%) [3]: 3%
- Annexin V-/PI− (%) [3]: 94%
- Annexin V+/PI+ (%) [4]: 3%
- Annexin V+/PI− (%) [4]: 1%
- Annexin V−/PI− (%) [4]: 95%
- Annexin V+/PI+ (%) [5]: 4%
- Annexin V+/PI− (%) [5]: 4%
- Annexin V-/PI− (%) [5]: 92%
- Annexin V+/PI+ (%) [6]: 4%
- Annexin V+/PI− (%) [6]: 1%
- Annexin V−/PI− (%) [6]: 95%
- Annexin V+/PI+ (%) [7]: 10%
- Annexin V+/PI− (%) [7]: 5%
- Annexin V+/PI+ (%) [8]: 6%
- Annexin V+/PI− (%) [8]: 1%
- Annexin V−/PI− (%) [8]: 93%
- Annexin V+/PI+ (%) [9]: 27%
- Annexin V+/PI− (%) [9]: 9%
- Annexin V+/PI+ (%) [10]: 17%
- Annexin V+/PI− (%) [10]: 0%
- Annexin V−/PI− (%) [10]: 82%
- Annexin V+/PI+ (%) [11]: 2%
- Annexin V+/PI− (%) [11]: 5%
- Annexin V−/PI− (%) [11]: 93%
- Annexin V+/PI+ (%) [12]: 2%
- Annexin V+/PI− (%) [12]: 1%
- Annexin V−/PI− (%) [12]: 97%
- Annexin V+/PI+ (%) [13]: 5%
- Annexin V+/PI− (%) [13]: 8%
- Annexin V−/PI− (%) [13]: 88%
- Annexin V+/PI+ (%) [14]: 3%
- Annexin V+/PI− (%) [14]: 1%
- Annexin V−/PI− (%) [14]: 96%
- Annexin V+/PI+ (%) [15]: 59%
- Annexin V+/PI− (%) [15]: 8%
- Annexin V−/PI− (%) [15]: 23%
- Annexin V+/PI+ (%) [16]: 70%
- Annexin V+/PI− (%) [16]: 0%
- Annexin V−/PI− (%) [16]: 28%
- Annexin V+/PI+ (%) [17]: 86%
- Annexin V+/PI− (%) [17]: 4%
- Annexin V−/PI− (%) [17]: 10%
- Annexin V+/PI+ (%) [18]: 83%
- Annexin V+/PI− (%) [18]: 0%
- Annexin V−/PI− (%) [18]: 14%
- Annexin V+/PI+ (%) [19]: 96%
- Annexin V+/PI− (%) [19]: 1%
- Annexin V−/PI− (%) [19]: 2%
- Annexin V+/PI+ (%) [20]: 91%
- Annexin V+/PI− (%) [20]: 0%
- Annexin V−/PI− (%) [20]: 6%
- Annexin V+/PI+ (%) [21]: 2%
- Annexin V+/PI− (%) [21]: 3%
- Annexin V−/PI− (%) [21]: 95%
- Annexin V+/PI+ (%) [22]: 3%
- Annexin V+/PI− (%) [22]: 2%
- Annexin V−/PI− (%) [22]: 95%
- Annexin V+/PI+ (%) [23]: 2%
- Annexin V+/PI− (%) [23]: 3%
- Annexin V−/PI− (%) [23]: 95%
- Annexin V+/PI+ (%) [24]: 3%
- Annexin V+/PI− (%) [24]: 1%
- Annexin V−/PI− (%) [24]: 96%
- Annexin V+/PI+ (%) [25]: 4%
- Annexin V+/PI− (%) [25]: 4%
- Annexin V−/PI− (%) [25]: 92%
- Annexin V+/PI+ (%) [26]: 4%
- Annexin V+/PI− (%) [26]: 1%
- Annexin V−/PI− (%) [26]: 94%
- Annexin V+/PI+ (%) [27]: 86%
- Annexin V+/PI− (%) [27]: 6%
- Annexin V−/PI− (%) [27]: 8%
- Annexin V+/PI+ (%) [28]: 81%
- Annexin V+/PI− (%) [28]: 2%
- Annexin V−/PI− (%) [28]: 15%
- Annexin V+/PI+ (%) [29]: 92%
- Annexin V+/PI− (%) [29]: 4%
- Annexin V−/PI− (%) [29]: 3%
- Annexin V+/PI+ (%) [30]: 90%
- Annexin V+/PI− (%) [30]: 0%
- Annexin V−/PI− (%) [30]: 8%
- Annexin V+/PI+ (%) [31]: 96%
- Annexin V+/PI− (%) [31]: 2%
- Annexin V−/PI− (%) [31]: 1%
- Annexin V+/PI+ (%) [32]: 94%
- Annexin V+/PI− (%) [32]: 0%
- Annexin V−/PI− (%) [32]: 5%
- Annexin V+/PI+ (%) [33]: 98%
- Annexin V+/PI− (%) [33]: 2%
- Annexin V−/PI− (%) [33]: 1%
- Annexin V+/PI+ (%) [34]: 97%
- Annexin V+/PI− (%) [34]: 0%
- Annexin V−/PI− (%) [34]: 2%
